Assay results from PMC5641330, “Prediction of a Therapeutic Dose for Buagafuran, a Potent Anxiolytic Agent by Physiologically Based Pharmacokinetic/Pharmacodynamic Modeling Starting from Pharmacokinetics in Rats and Human” (Frontiers in Pharmacology, 2017).

Assays:
[1] = parameters: method as in Hu et al., 2011; details: rats, oral administration; ref Hu et al., 2011; cited from earlier work
[2] = Clearance prediction from incubation with human liver microsomes; format: in vitro ADME
Experimental: Drug disappearance t1/2 value measurements in rat and human microsomes were used to determine the in vitro apparent intrinsic clearance value (CLintapp) of buagafuran acquired using Then CLintapp was converted to in vivo intrinsic clearance (CLint).
Rat or human liver microsomal incubation (0.5 mg/mL) was carried out at 37°C in a mixture of 0.5 mL in 0.05 M Tris–HCl buffer (pH 7.4). Buagafuran (2 μM) was added to the incubation system. The addition of NADPH (1 mM) initiated the reaction, then the reaction was incubated for 0, 10, 20, 30, 45, and 60 min. The equal volume of acetonitrile containing the IS (10 ng/mL) was added to stop the reaction. The mixtures were centrifuged at 16000 g for 5 min and the supernatants were determined using LC-MS/MS method.
The natural log (In) of buagafuran concentration versus time was plotted and the slope of the best fit line of was determined by the data (k). This was converted into in vitro t1/2 where t1/2 = In 2/k. CLintapp was calculated by the following equation: […]
Where M is the microsomal protein concentration in the incubation. CLint by liver was calculated from equation 2:
(2) CLint=CLint(app)×mgmicrosome/gliver×liverweight(g)/bodyweight(kg)
Where a value of 45 mg of protein per gram of liver tissue was used for both rat and human, and a liver weight of 40 and 21 g per kg were applied to rat and human, respectively ([Hosea et al., 2009]). […]

[3] = Plasma protein binding by equilibrium dialysis, human plasma; format: in vitro ADME; details: 0.5–2 μg/mL
Experimental: (§1) The plasma protein binding of buagafuran (0.5–2 μg/mL) was investigated by equilibrium dialysis. Aliquots (0.5 mL) of plasma were dialyzed against 10 mL phosphate buffered saline containing a ^3H-buagafuran tracer over a membrane with an 8,000- to 12,000-dalton molecular weight cutoff. Dialysis experiment was performed for 60 h at 4 °C. After the dialysis period, 100 μL of the PBS fraction (containing unbound buagafuran) and 100 μL of the plasma fraction (containing both bound and unbound drug) was taken for liquid scintillation counting. The ratio of buagafuran concentration in buffer to that in plasma was applied to calculate the unbound fraction (Fu).

[4] = Plasma protein binding by equilibrium dialysis, rat plasma; format: in vitro ADME; details: 0.5–2 μg/mL
Experimental: as §1

Caco-2 transport study = format: in vitro ADME; parameters: Caco-2 Papp: unit not given here; details: human, Caco-2 monolayer
Experimental: (§2) Caco-2 Cells from passage 38 were applied to the transport experiments. Cells were seeded on polycarbonate filters (12 mm diameter, pore size 0.4 μm). The cell monolayers were used 21 days post seeding. Buagafuran was dissolved in DMSO. It was further diluted to 50 μM with HBSS. The final buagafuran concentration was 50 μM. For absorptive (AP→BL) permeability test, drug solution (0.4 mL) was added to the apical chamber. For secretive (BL→AP) permeability experiments, drug solution (0.6 mL) was added to the basolateral chamber, then 50 μL samples (n = 3) were withdrawn from receiver chamber at specified times and 50 μL fresh buffer was added in the receiver chamber. The experiments were carried out in triplicate at 4 time points.
(§3) Transport of buagafuran was tested using a linear model. The regression line was validated by inspection with naked eye and the value of correlation coefficient was R > 0.9. The apparent permeability coefficient (Papp) was calculated by the formula Papp = (ΔQ/Δt)/ACo, where ΔQ/Δt is the transport rate (nmol/s), which remained approximately constant in time, A is the well membrane area (0.6 cm^2), and Co is the initial concentration of buagafuran (μM). The efflux rate (ER) was the ratio of the Papp from the basolateral to apical cells versus the Papp from the apical to basolateral cells. Transport of the tested drug is linear over the incubation times of 30–120 min.

Caco-2 cells = test: Caco-2 transport study; format: in vitro ADME; parameters: Caco-2 Papp: unit not given here; details: PBPK input parameter; 50 μM
Experimental: as §2, §3

**Q.** Which results are given for CCCCC1=CCC[C@@]2(C)CC[C@@H]3C[C@]12OC3(C)C [buagafuran]?
**A.** dose recovered as prototype in the bile [1]: < 0.3%; dose recovered as prototype in the urine [1]: less than 0.1%; radioactivity recovered in feces [1]: 28.7%; radioactivity recovered in urine [1]: 51.2%; total radioactivity recovered [1]: about 80%; CLhep predicted ([2]; from human liver microsomes, well-stirred model): 7.7 mL/min/kg; microsomal CLint at 2 μM ([2]; pH 7.4, human liver microsomes 0.5 mg/mL, 2 μM, read-out: in vitro CLintapp): 22 µL/min/mg; concentration dependence of plasma protein binding ([3]; human plasma): no evident concentration-dependent binding; fraction unbound at 60 h ([3]; human, plasma, equilibrium dialysis, read-out: Fup human (unbound fraction in human plasma)): 0.04; concentration dependence of plasma protein binding ([4]; rat plasma): no evident concentration-dependent binding; fraction unbound at 60 h ([4]; rat, plasma, equilibrium dialysis, read-out: Fup rat (unbound fraction in rat plasma)): 0.031; Papp A→B at 50 μM (Caco-2 transport study; read-out: apparent permeability coefficient (AP to BL)): 195 ×10⁻⁶ cm/s; Papp B→A at 50 μM (Caco-2 transport study; read-out: apparent permeability coefficient (BL to AP)): 438 ×10⁻⁶ cm/s; Caco-2 Papp (Caco-2 cells): 19.5 × 10^-5
